Test results published in patent publication US6770645B2, “Pharmaceutically active compounds” (Pfizer Inc., priority 2001, dated 2004).
Counter-ions that a name gives are not always drawn. Like-named read-outs stand apart in the source and are kept apart here.

Columns and labels:
[1] = molecular target: T1, cGMP PDE5 (Homo sapiens, UniProt O76074); experiment: In vitro cGMP PDE5 inhibitory activity (IC50); type: biochemical
T1 construct: The required PDE enzymes were isolated from a variety of sources, including human corpus cavernosum, human platelets; from tissue; host or cells: human corpus cavernosum tissue or human platelets
Description: The compounds of the present invention are potent and selective cGMP PDE5 inhibitors. In vitro PDE inhibitory activities against cyclic guanosine 3′,5′-monophosphate (cGMP) and cyclic adenosine 3′,5′-monophosphate (cAMP) phosphodiesterases were determined by measurement of their IC50 values (the concentration of compound required for 50% inhibition of enzyme activity).
The required PDE enzymes were isolated from a variety of sources, including human corpus cavernosum, human platelets, human cardiac ventricle, human skeletal muscle and human and canine retina, essentially by the method of W. J. Thompson and M. M. Appleman (Biochem., 1971, 10, 311). In particular, the cGMP-specific PDE (PDE5) and the cGMP-inhibited cAMP PDE (PDE3) were obtained from human corpus cavernosum tissue or human platelets; the cGMP-stimulated PDE (PDE2) was obtained from human corpus cavernosum or human platelets; the calcium/calmodulin (Ca/CAM)-dependent PDE (PDE1) from human cardiac ventricle; the cAMP-specific PDE (PDE4) from recombinant clone or human skeletal muscle; and the photoreceptor PDE (PDE6) from canine or human retina. Phosphodiesterases 7-11 were generated from full length human recombinant clones transfected into SF9 cells.
Assays were performed either using a modification of the “batch” method of W. J. Thompson et al. (Biochem., 1979, 18, 5228) or using a scintillation proximity assay for the direct detection of AMP/GMP using a modification of the protocol described by Amersham pic under product code TRKQ7090/7100. In summary, the effect of PDE inhibitors was investigated by assaying a fixed amount of enzyme in the presence of varying inhibitor concentrations and low substrate, (cGMP or cAMP in a 3:1 ratio unlabelled to [^3H]-labeled at a conc ˜½ Km) such that IC50 ≅Ki. The final assay volume was made up to 102 μl with assay buffer [20 mM Tris-HCl pH 7.4, 5 mM MgCl2, 1 mg/ml bovine serum albumin]. Reactions were initiated with enzyme, incubated for 30-60 min at 30° C. to give <30% substrate turnover and terminated with 50 μl yttrium silicate SPA beads (containing 3 mM of the respective unlabelled cyclic nucleotide for PDEs 3, 9 and 11). Plates were resealed and shaken for 20 min, after which the beads were allowed to settle for 30 min in the dark and then counted on a TopCount plate reader (Packard, Meriden, Conn.). Radioactivity units were converted to % activity of an uninhibited control (100%), plotted against inhibitor concentration and inhibitor IC50 values obtained using the ‘Fit Curve’ Microsoft Excel extension or inhouse equivalent.

[2] = bounds for groups of Examples, read-out: IC50 values for the PDE5 enzyme
[3] = in vitro cGMP PDE5 inhibitory activity, Table 1, read-out: IC50

Compound | melting point [°C] | IC50 [1, 2] [nM] | IC50 [1, 3] [nM]
CCCCOc1ccc(S(C)(=O)=O)cc1-c1nc2c(CC)nn(Cc3ccccn3)c2c(=O)[nH]1 (as salt: potassium) [Example 5, 5-[2-Butoxy-5-(methylsulfonyl)phenyl]-3-ethyl-1-(2-pyridinylmethyl)-1,6-dihydro-7H-pyrazolo[4,3-d]pyrimidin-7-one] | 189 to 191 | – | –
CCCOc1ccc(S(C)(=O)=O)cc1-c1nc2c(CC)nn(Cc3ccccn3)c2c(=O)[nH]1 (as salt: potassium) [Example 11, 3-Ethyl-5-[5-(methylsulfonyl)-2-propoxyphenyl]-1-(2-pyridinylmethyl)-1,6-dihydro-7H-pyrazolo[4,3-d]pyrimidin-7-one] | 209 to 211 | – | –
CCc1nn(Cc2ccccn2)c2c(=O)[nH]c(-c3cc(S(C)(=O)=O)ccc3OCC(C)C)nc12 [Example 3, 3-Ethyl-5-[2-isobutoxy-5-(methylsulfonyl)phenyl]-1-(2-pyridinylmethyl)-1,6-dihydro-7H-pyrazolo[4,3-d]pyrimidin-7-one] | 223 to 225 | < 10 | 1.5
CCc1nn(Cc2ccccn2)c2c(=O)[nH]c(-c3cc(S(C)(=O)=O)ccc3OCCOC)nc12 [Example 4, 3-Ethyl-5-[2-(2-methoxyethoxy)-5-(methylsulfonyl)phenyl]-1-(2-pyridinylmethyl)-1,6-dihydro-7H-pyrazolo[4,3-d]pyrimidin-7-one] | 166 to 167 | – | –
CCCCOc1ccc(S(C)(=O)=O)cc1-c1nc2c(CC)nn(Cc3ccccn3)c2c(=O)[nH]1 [Example 5, 5-[2-Butoxy-5-(methylsulfonyl)phenyl]-3-ethyl-1-(2-pyridinylmethyl)-1,6-dihydro-7H-pyrazolo[4,3-d]pyrimidin-7-one] | – | < 10 | 3.5
CCc1n[nH]c2c(=O)[nH]c(-c3cc(S(C)(=O)=O)ccc3OCc3ccccn3)nc12 [Example 6, 3-Ethyl-5-[5-(methylsulfonyl)-2-(2-pyridinylmethoxy)phenyl]-1,6-dihydro-7H-pyrazolo[4,3-d]pyrimidin-7-one] | 283 to 286 | – | –
CCc1nn(Cc2nccn2C)c2c(=O)[nH]c(-c3cc(S(C)(=O)=O)ccc3OCC(C)C)nc12 [Example 7, 3-Ethyl-5-[2-isobutoxy-5-(methylsulfonyl)phenyl]-1-[(1-methyl-1H-imidazol-2-yl)methyl]-1,6-dihydro-7H-pyrazolo[4,3-d]pyrimidin-7-one] | 253 to 254 | < 10 | 1.7
CCCCOc1ccc(S(C)(=O)=O)cc1-c1nc2c(CC)n(CCN3CCOCC3)nc2c(=O)[nH]1 [Example 8, 5-[2-Butoxy-5-(methylsulfonyl)phenyl]-3-ethyl-2-[2-(4-morpholinyl)ethyl]-2,6-dihydro-7H-pyrazolo[4,3-d]pyrimidin-7-one] | 235 to 238 | < 10 | 10
CCc1c2nc(-c3cc(S(C)(=O)=O)ccc3OCC(C)C)[nH]c(=O)c2nn1CCN1CCOCC1 [Example 10, 3-Ethyl-5-[2-isobutoxy-5-(methylsulfonyl)phenyl]-2-[2-(4-morpholinyl)ethyl]-2,6-dihydro-7H-pyrazolo[4,3-d]pyrimidin-7-one] | 268 to 273 | < 10 | 7.6
CCc1nn(C[C@@H]2CCCN2C)c2c(=O)[nH]c(-c3cc(S(C)(=O)=O)ccc3OCC(C)C)nc12 [Example 13, 3-Ethyl-5-[2-isobutoxy-5-(methylsulfonyl)phenyl]-1-{[(2S)-1-methylpyrrolidinyl]methyl}-1,6-dihydro-7H-pyrazolo[4,3-d]pyrimidin-7-one] | 190 to 194 | < 10 | 6.3
CCc1c2nc(-c3cc(S(C)(=O)=O)ccc3OCC(C)C)[nH]c(=O)c2nn1Cc1cccnn1 [Example 15, 3-Ethyl-5-[2-isobutoxy-5-(methylsulfonyl)phenyl]-2-(3-pyridazinylmethyl)-2,6-dihydro-7H-pyrazolo[4,3-d]pyrimidin-7-one] | 244 to 247 | < 10 | 7.3
CCc1nn(Cc2cccnn2)c2c(=O)[nH]c(-c3cc(S(C)(=O)=O)ccc3OCC(C)C)nc12 [Example 16, 3-Ethyl-5-[2-isobutoxy-5-(methylsulfonyl)phenyl]-1-(3-pyridazinylmethyl)-1,6-dihydro-7H-pyrazolo[4,3-d]pyrimidin-7-one] | 231 to 234 | < 10 | 9.8
CCc1c2nc(-c3cc(S(C)(=O)=O)ccc3OCC(C)C)[nH]c(=O)c2nn1Cc1ccccn1 [Example 17, 3-Ethyl-5-[2-isobutoxy-5-(methylsulfonyl)phenyl]-2-(2-pyridinylmethyl)-2,6-dihydro-7H-pyrazolo[4,3-d]pyrimidin-7-one] | 235 to 238 | < 10 | 4.8
CCc1nn(C2CN(C(C)C)C2)c2c(=O)[nH]c(-c3cc(S(C)(=O)=O)ccc3OCC(C)C)nc12 [Example 20] | 206 to 209 | – | 13.7
CCc1c2nc(-c3cc(S(C)(=O)=O)ccc3OCC(C)C)[nH]c(=O)c2nn1C1CCN(C)CC1 [Example 21, 3-Ethyl-5-[2-isobutoxy-5-(methylsulfonyl)phenyl]-2-(1-methyl-4-piperidinyl)-2,6-dihydro-7H-pyrazolo[4,3-d]pyrimidin-7-one] | 292 to 295 | – | 12.5
CCc1c2nc(-c3cc(S(C)(=O)=O)ccc3OCC(C)C)[nH]c(=O)c2nn1C1CCN(C(C)C)CC1 [Example 22, 3-Ethyl-5-[2-isobutoxy-5-(methylsulfonyl)phenyl]-2-(1-isopropyl-4-piperidinyl)-2,6-dihydro-7H-pyrazolo[4,3-d]pyrimidin-7-one] | 273 to 275 | – | 13.4
CCCOc1ncc(S(C)(=O)=O)cc1-c1nc2c(CC)nn(C[C@@H]3CCCN3C)c2c(=O)[nH]1 [Example 23, 3-Ethyl-1-{[(2S)-1-methylpyrrolidinyl]methyl}-5-[5-(methylsulfonyl)-2-propoxy-3-pyridinyl]-1,6-dihydro-7H-pyrazolo[4,3-d]pyrimidin-7-one] | 182 to 183 | – | –
CCCOc1ccc(S(C)(=O)=O)cc1-c1nc2c(CC)nn(CCN(C(C)C)C(C)C)c2c(=O)[nH]1 [Example 24, 1-[2-(Diisopropylamino)ethyl]-3-ethyl-5-[5-(methylsulfonyl)-2-propoxyphenyl]-1,6-dihydro-7H-pyrazolo[4,3-d]pyrimidin-7-one] | – | < 10 | 6.7
CCCOc1ccc(S(C)(=O)=O)cc1-c1nc2c(CC)n(CCN(C(C)C)C(C)C)nc2c(=O)[nH]1 [Example 25, 2-[2-(diisopropylamino)ethyl]-3-ethyl-5-[5-(methylsulfonyl)-2-propoxyphenyl]-2,6-dihydro-7H-pyrazolo[4,3-d]pyrimidin-7-one] | – | < 10 | 5.4
CCCOc1ccc(S(=O)(=O)CC)cc1-c1nc2c(CC)nn(C[C@@H]3CCCN3C)c2c(=O)[nH]1 [Example 26, 3-Ethyl-5-[5-(ethylsulfonyl)-2-propoxyphenyl]-1-{[(2S)-1-methylpyrrolidinyl]methyl}-1,6-dihydro-7H-pyrazolo[4,3-d]pyrimidin-7-one] | – | – | 18.3
CCCOc1ccc(S(C)(=O)=O)cc1-c1nc2c(CC)nn(C[C@@H]3CCCCN3C)c2c(=O)[nH]1 [Example 28, 3-Ethyl-1-{[(2S)-1-methylpiperidinyl]methyl}-5-[5-(methylsulfonyl)-2-propoxyphenyl]-1,6-dihydro-7H-pyrazolo[4,3-d]pyrimidin-7-one] | – | < 10 | 3.6
C=CCc1nc(CC)n2nc(-c3cc(S(C)(=O)=O)ccc3OCCCC)[nH]c(=O)c12 [Example 29] | 192 to 194 | < 10 | 6.7
